From PubChem BioAssay AID1919013 (Molecular Pharmacology Branch, DTP, NCI, 2023)
“And” between values parts separate entries of the source, which are not always exact repeats. Equal values may be shown once.

Tested on: LG0703-F498-PDC complex spheroid growth
Experiment: Anticancer human tumor LG0703-F498-PDC patient-derived lung adenocarcinoma cell line growth inhibition [AhR]
Conditions: for viability, T/C: stronger effect = lower value
Summary of the method: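 Spheroids combined tumor cells with HUVEC endothelial cells and human MSCs as stroma. AhR antagonists were paired with standard or investigational drugs, each dosed in half-log steps down from near clinical Cmax, or from 10 microM where Cmax was unknown.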

[1] = curve of first compound, second compound 0.1 µM
[2] = curve of first compound, second compound 0.316 µM
[3] = curve of first compound, second compound 1 µM
[4] = curve of first compound, second compound 3.16 µM
[5] = curve of first compound, second compound 10 µM
[6] = second compound 0.1 µM, first compound 0.0316 µM
[7] = second compound 0.1 µM, first compound 0.1 µM
[8] = second compound 0.316 µM, first compound 0.0316 µM
[9] = second compound 0.316 µM, first compound 0.1 µM
[10] = second compound 1 µM, first compound 0.0316 µM
[11] = second compound 1 µM, first compound 0.1 µM
[12] = second compound 3.16 µM, first compound 0.0316 µM
[13] = second compound 3.16 µM, first compound 0.1 µM
[14] = second compound 10 µM, first compound 0.0316 µM
[15] = second compound 10 µM, first compound 0.1 µM
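Also: luminescence taken as a proxy for viable cell amount.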
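For viability, T/C in this document: percent of DMSO vehicle control where 100% means growth equal to vehicle.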

Compound: Nc1ccn(C2OC(CO)C(O)C2(F)F)c(=O)n1 (configuration not stated)
- viability, T/C (compound 0.0316 µM): 38% and 42% and 41.4%
- viability, T/C (compound 0.1 µM): 37.1% and 44.8% and 35.2%
- viability, T/C (compound 0.316 µM): 35.5% and 47.5% and 34.7%
- viability, T/C (compound 1 µM): 32.2% and 38.6% and 33.6%
- viability, T/C (compound 3.16 µM): 26.9% and 34.3% and 30.5%
- viability, T/C (compound 10 µM): 20.3% and 28.3% and 21.4%
- IC50 (curve of compound): < 31.6 nM

Compound: CC[C@@]1(O)C(=O)OCc2c1cc1n(c2=O)Cc2cc3c(CN(C)C)c(O)ccc3nc2-1 + CC(CO)NC(=O)c1cc(-c2ccc(Cl)cc2)nn(-c2cnn(C)c2)c1=O
- IC50 [1]: > 100 nM
- IC50 [2]: > 100 nM
- IC50 [3]: > 100 nM
- IC50 [4]: > 100 nM
- IC50 [5]: > 100 nM
- viability, T/C (second compound 0.1 µM, first compound 0.000316 µM): 89%
- viability, T/C (second compound 0.1 µM, first compound 0.001 µM): 101%
- viability, T/C (second compound 0.1 µM, first compound 0.00316 µM): 86.7%
- viability, T/C (second compound 0.1 µM, first compound 0.01 µM): 90.6%
- viability, T/C [6]: 83.2%
- viability, T/C [7]: 66.1%
- viability, T/C (second compound 0.316 µM, first compound 0.000316 µM): 96%
- viability, T/C (second compound 0.316 µM, first compound 0.001 µM): 99.5%
- viability, T/C (second compound 0.316 µM, first compound 0.00316 µM): 92.3%
- viability, T/C (second compound 0.316 µM, first compound 0.01 µM): 80.9%
- viability, T/C [8]: 73.2%
- viability, T/C [9]: 57.2%
- viability, T/C (second compound 1 µM, first compound 0.000316 µM): 80.8%
- viability, T/C (second compound 1 µM, first compound 0.001 µM): 93.2%
- viability, T/C (second compound 1 µM, first compound 0.00316 µM): 84.5%
- viability, T/C (second compound 1 µM, first compound 0.01 µM): 77.4%
- viability, T/C [10]: 78.6%
- viability, T/C [11]: 61.2%
- viability, T/C (second compound 3.16 µM, first compound 0.000316 µM): 76%
- viability, T/C (second compound 3.16 µM, first compound 0.001 µM): 86.3%
- viability, T/C (second compound 3.16 µM, first compound 0.00316 µM): 90.8%
- viability, T/C (second compound 3.16 µM, first compound 0.01 µM): 79.2%
- viability, T/C [12]: 58.6%
- viability, T/C [13]: 52.9%
- viability, T/C (second compound 10 µM, first compound 0.000316 µM): 79.2%
- viability, T/C (second compound 10 µM, first compound 0.001 µM): 79.7%
- viability, T/C (second compound 10 µM, first compound 0.00316 µM): 86.6%
- viability, T/C (second compound 10 µM, first compound 0.01 µM): 66.5%
- viability, T/C [14]: 63.4%
- viability, T/C [15]: 51.9%

Compound: CC1COCCN1c1cc(C2(S(C)(=N)=O)CC2)nc(-c2ccnc3[nH]ccc23)n1 (configuration not stated) + CC(CO)NC(=O)c1cc(-c2ccc(Cl)cc2)nn(-c2cnn(C)c2)c1=O
- IC50 [1]: > 10000 nM
- IC50 [2]: > 10000 nM
- IC50 [3]: > 10000 nM
- IC50 [4]: > 10000 nM
- IC50 [5]: > 10000 nM
- viability, T/C [6]: 101%
- viability, T/C [7]: 91.6%
- viability, T/C (second compound 0.1 µM, first compound 0.316 µM): 89.7%
- viability, T/C (second compound 0.1 µM, first compound 1 µM): 99.3%
- viability, T/C (second compound 0.1 µM, first compound 3.16 µM): 79.1%
- viability, T/C (second compound 0.1 µM, first compound 10 µM): 63.4%
- viability, T/C [8]: 92.6%
- viability, T/C [9]: 91.7%
- viability, T/C (second compound 0.316 µM, first compound 0.316 µM): 93.7%
- viability, T/C (second compound 0.316 µM, first compound 1 µM): 90.2%
- viability, T/C (second compound 0.316 µM, first compound 3.16 µM): 86%
- viability, T/C (second compound 0.316 µM, first compound 10 µM): 53.1%
- viability, T/C [10]: 97.8%
- viability, T/C [11]: 92.8%
- viability, T/C (second compound 1 µM, first compound 0.316 µM): 88.3%
- viability, T/C (second compound 1 µM, first compound 1 µM): 91%
- viability, T/C (second compound 1 µM, first compound 3.16 µM): 68.8%
- viability, T/C (second compound 1 µM, first compound 10 µM): 60%
- viability, T/C [12]: 89.9%
- viability, T/C [13]: 89%
- viability, T/C (second compound 3.16 µM, first compound 0.316 µM): 95.8%
- viability, T/C (second compound 3.16 µM, first compound 1 µM): 82.3%
- viability, T/C (second compound 3.16 µM, first compound 3.16 µM): 79.1%
- viability, T/C (second compound 3.16 µM, first compound 10 µM): 59.1%
- viability, T/C [14]: 76.1%
- viability, T/C [15]: 95.3%
- viability, T/C (second compound 10 µM, first compound 0.316 µM): 73.8%
- viability, T/C (second compound 10 µM, first compound 1 µM): 83.7%
- viability, T/C (second compound 10 µM, first compound 3.16 µM): 59.6%
- viability, T/C (second compound 10 µM, first compound 10 µM): 51.3%
